Measured values taken from patent US20230285402A1, “Compositions and Methods of Modulating Short-Chain Dehydrogenase Activity” (BOARD OF REGENTS OF THE UNIVERSITY OF TEXAS SYSTEM, priority 2013, published 2023).

Tests used:
[1] = tested on: A549 cells; assay: PGE2 in medium of IL1-beta stimulated A549 cells; type: cell-based
[2] = tested on: A549 cells; assay: Cellular toxicity by CellTiter-Glo; type: cell-based; details: concentrations of up to 10 μM; 24 hours
Procedure: FIGS. 38(A-C) show assays of cellular toxicity on A549 cells at 24 hours of 15-PGDH inhibitors as assayed by CellTiter-Glo measurement.

[3] = tested on: C57BL/6J mice; assay: Survival of 11Gy irradiated C57BL/6J mice given marrow allograft, SW033291 5 mg/kg IP bid for 21 days, 3 mice per condition; type: in vivo, mouse
Text: The experimental design is depicted in FIG. 50.
Under the conditions of the mouse colony during this study, control mice receiving 100,000-500,000 cells are all dead between days 4-13 of study. […] Such activity would be of particular utility in settings, such as transplantation with umbilical cord stem cells, in which donor cell numbers are limited.

[4] = Hepatocyte stability; type: in vitro ADME; details: in words
Procedure: Time to inhibition refers to the time needed to inhibit the generation of NADH by 15-PGDH from the moment with drug is added into the reaction mix. Delta Tm refers to the shift in melting temperature of recombinant 15-PGDH in the presence of drug (with cofactor NADH also present). Concentration of Full Cell Line Reporter Induction refers to the concentration of drug that needs to be added to reporter cell line to achieve maximal induction of the 15-PGDH-luciferase gene fusion reporter cassette, as measured by luciferase assays. Hepatocyte stability refers to the half-life of compound in the presence of hepatocytes in culture. Toxicity refers to the concentration of compound needed to decrease cell numbers in a cell culture assay.

[5] = tested on: FVB male mice; assay: Dextran sodium sulfate (DSS) induced colitis, FVB male mice, SW033291 5 mg/kg IP twice daily; type: in vivo, mouse
[6] = tested on: 15-PGDH mRNA; assay: 15-PGDH mRNA by real-time PCR in colon cancer cell lines; type: cell-based
Text: In these studies parental cell lines (not containing the 15-PGDH-luciferase reporter) are employed.

[7] = tested on: C57BL/6J female mice; assay: Survival of mice after whole body irradiation, SW033291 5 mg/kg IP; type: in vivo, mouse; details: for number of mice surviving: 9 Gy
[8] = tested on: bone marrow; assay: Hematopoietic colonies from wild-type mouse bone marrow treated ex vivo; type: cell-based; details: 0.5 μM, ex vivo on ice 2 hours
Text: Treated marrow is again then plated into methylcellulose for counting of hematopoietic colonies.

[9] = tested on: CXCL12; assay: Gene expression in bone marrow cells of treated mice: CXCL12; type: in vivo, mouse; details: 10 mg/kg IP twice daily, 5 doses
Procedure: 2 hours following the last dose bone marrow is harvested and sorted into SKL marked cells that are hematopoietic stem cell enriched and into CD45(−) cells that are bone marrow stroma cells. RNA was extracted and gene expression determined relative to levels in mice injected with vehicle control.

[10] = tested on: mice; assay: Homing of CFSE labeled donor bone marrow cells in lethally irradiated mice; type: in vivo, mouse; details: 10 mg/kg IP
Procedure: Drugs are administered following radiation, following the transplant, and again at 8 hours after the transplant.

[11] = tested on: C57BL/6J mice; assay: Competitive transplant of marrow from treated CD45.2 donor mice; type: in vivo, mouse; details: donor 5 mg/kg IP daily for 3 doses; weeks 12 and 16
Procedure: On day 3 mice were sacrificed, marrow flushed and mixed at a 1:1 ratio with vehicle treated CD45.1 marrow. 2 million whole BM cells were injected into the tail vein of lethally irradiated CD45.1 mice and percent chimerism measured via flow cytometry at weeks 8, 12, 16.

[12] = tested on: NSG mice; assay: Homing of CFSE labeled human umbilical cord blood buffy coat cells in NSG mice; details: in vivo
Procedure: FIG. 93 illustrates a schema of an experiment in which immune deficient NSG mice are lethally irradiated (IR) and 12 hours later receive a transplant with CFSE dye labeled buffy coat cells from human umbilical cord blood (UCB), and number of transplanted cells that home and survive in the bone marrow of the recipient mice are then determined by FACS at 16 hours post-transplant. In different arms of the experiment mice are treated with vehicle or with SW033291. Drugs are administered following radiation, following the transplant, and again at 8 hours after the transplant.

[13] = tested on: C57BL/6J mice; assay: Bone marrow of C57BL/6J mice treated IP; type: in vivo, mouse; details: 5 mg/kg or 20 mg/kg IP
Text: Experimental conditions are noted on the figure.

[14] = tested on: C57BL/6J mice; assay: Liver regeneration after partial hepatectomy, C57BL/6J mice, SW033291 5 mg/kg IP; type: in vivo; details: 5 mg/kg IP bid; one mouse each

Compound: CCCC[S+]([O-])c1sc2nc(-c3cccs3)cc(-c3ccccc3)c2c1N (centres unmarked) [SW033291, 2-(butylsulfinyl)-4-phenyl-6-(thiophen-2-yl)thieno[2,3-b]pyridin-3-amine]
- rank of PGE2 level in medium ([1]; 100 nM drug): next highest level of PGE2
- 15-PGDH activity in cells as reflected in PGE2 levels ([1]; IL1-beta 23 hours, compound for last 5 hours): clear inhibition of 15-PGDH activity
- highest PGE2 level in medium ([1]; IL-1β 16 h, then compound 8 h): 3000 pg/mL
- effect on CellTitre-Glo levels [2]: No effect
- Mouse survival (number surviving) ([3]; Day 0, 1 × 10^5 cells): 3
- Mouse survival (number surviving) ([3]; Day 0, 2 × 10^5 cells): 3
- Mouse survival (number surviving) ([3]; Day 0, 5 × 10^5 cells): 3
- Mouse survival (number surviving) ([3]; Day 1, 1 × 10^5 cells): 3
- Mouse survival (number surviving) ([3]; Day 1, 2 × 10^5 cells): 3
- Mouse survival (number surviving) ([3]; Day 1, 5 × 10^5 cells): 3
- Mouse survival (number surviving) ([3]; Day 2, 1 × 10^5 cells): 3
- Mouse survival (number surviving) ([3]; Day 2, 2 × 10^5 cells): 3
- Mouse survival (number surviving) ([3]; Day 2, 5 × 10^5 cells): 3
- Mouse survival (number surviving) ([3]; Day 3, 1 × 10^5 cells): 3
- Mouse survival (number surviving) ([3]; Day 3, 2 × 10^5 cells): 3
- Mouse survival (number surviving) ([3]; Day 3, 5 × 10^5 cells): 3
- Mouse survival (number surviving) ([3]; Day 4, 1 × 10^5 cells): 2
- Mouse survival (number surviving) ([3]; Day 4, 2 × 10^5 cells): 3
- Mouse survival (number surviving) ([3]; Day 4, 5 × 10^5 cells): 3
- Mouse survival (number surviving) ([3]; Day 5, 1 × 10^5 cells): 1
- Mouse survival (number surviving) ([3]; Day 5, 2 × 10^5 cells): 3
- Mouse survival (number surviving) ([3]; Day 5, 5 × 10^5 cells): 3
- Mouse survival (number surviving) ([3]; Day 6, 1 × 10^5 cells): 0
- Mouse survival (number surviving) ([3]; Day 6, 2 × 10^5 cells): 2
- Mouse survival (number surviving) ([3]; Day 6, 5 × 10^5 cells): 3
- Mouse survival (number surviving) ([3]; Day 7, 2 × 10^5 cells): 2
- Mouse survival (number surviving) ([3]; Day 7, 5 × 10^5 cells): 3
- Mouse survival (number surviving) ([3]; Day 8, 2 × 10^5 cells): 2
- Mouse survival (number surviving) ([3]; Day 8, 5 × 10^5 cells): 2
- Mouse survival (number surviving) ([3]; Day 9, 2 × 10^5 cells): 2
- Mouse survival (number surviving) ([3]; Day 9, 5 × 10^5 cells): 2
- Mouse survival (number surviving) ([3]; Day 10, 2 × 10^5 cells): 2
- Mouse survival (number surviving) ([3]; Day 10, 5 × 10^5 cells): 2
- Mouse survival (number surviving) ([3]; Day 11, 2 × 10^5 cells): 2
- Mouse survival (number surviving) ([3]; Day 11, 5 × 10^5 cells): 2
- Mouse survival (number surviving) ([3]; Day 12, 2 × 10^5 cells): 1
- Mouse survival (number surviving) ([3]; Day 12, 5 × 10^5 cells): 2
- Mouse survival (number surviving) ([3]; Day 13, 2 × 10^5 cells): 0
- Mouse survival (number surviving) ([3]; Day 13, 5 × 10^5 cells): 2
- Hepatocyte stability [4]: Stable > couple hrs
- change from baseline weight vs control ([5]; 22 days of study): greater weight at all time points
- Colon length ([5]; Baseline): 8.4 ± 0.2 cm
- Wt @ sacrifice ([5]; Baseline): 25.9 ± 0.7 gm
- Colon length ([5]; Day 8): 6.6 ± 0.1 cm
- Wt @ sacrifice ([5]; Day 8): 26.4 ± 0.5 gm
- Colon length ([5]; Day 15): 7.5 ± 0.1 cm
- Wt @ sacrifice ([5]; Day 15): 25.2 ± 0.9 gm
- Colon length ([5]; Day 22): 8.6 ± 0.3 cm
- Wt @ sacrifice ([5]; Day 22): 28.2 ± 0.5 gm
- share of ulcer formation prevented ([5]; colonoscopy days 8, 11 and 15): two-thirds
- reduction of length of ulcerated mucosa vs control ([5]; day 15): 61%
- average length of ulcerated mucosa ([5]; day 15, N=6 mice, control 4.48): 1.74 mm per colon section
- MEICS score vs control ([5]; days 8, 11 and 15): significantly less colitis activity
- 15-PGDH mRNA ([6]; V503 cells): slight increase in 15-PGDH mRNA
- 15-PGDH mRNA levels ([6]; treated colon cancer cell lines): do not in general alter 15-PGDH mRNA levels
- longer survival on average than vehicle control ([7]; 11Gy, any of the three dosing schedules): 1 to 2 days
- longer survival than vehicle control ([7]; 11Gy, daily for 7 doses): 48 h
- number of mice surviving ([7]; Day 0, daily for 7 doses): 3
- number of mice surviving ([7]; Day 5, daily for 7 doses): 3
- number of mice surviving ([7]; Day 6, daily for 7 doses): 3
- number of mice surviving ([7]; Day 7, daily for 7 doses): 3
- number of mice surviving ([7]; Day 8, daily for 7 doses): 3
- number of mice surviving ([7]; Day 9, daily for 7 doses): 3
- number of mice surviving ([7]; Day 10, daily for 7 doses): 3
- number of mice surviving ([7]; Day 12, daily for 7 doses): 2
- number of mice surviving ([7]; Day 13, daily for 7 doses): 2
- number of mice surviving ([7]; Day 14, daily for 7 doses): 1
- number of mice surviving ([7]; Day 15, daily for 7 doses): 0
- appearance of mice ([7]; Day 25, 7 Gy, wrapped cell reads Looks Healthy): Looks
- increase in number of bone marrow derived colonies [8]: approximately 50%
- induction of CXCL12 ([9]; CD45(−) bone marrow stromal cells): greater than 4 fold
- induction in RNA expression of CXCL12 ([9]; bone marrow SKL cells): 3 fold
- increase of homed cells in recipient bone marrow ([10]; FIG. 88): 3 fold
- increase of homed cells in recipient bone marrow ([10]; FIG. 90): 2 fold
- increase of homed donor cells in recipient bone marrow ([10]; FIG. 140): approximately 2.5 fold
- percent blood chimerism of CD45.2 marked cells [11]: significantly increased
- increase of homed human cells in recipient mouse bone marrow [12]: ~2 fold
- increase in numbers of hematopoietic colonies [13]: approximately 30%
- percent of Sca1+/c-Kit+ cells in lineage negative (SKL) cells [13]: unchanged
- serum ALT values vs control [14]: lower
